In ChEMBL document CHEMBL3046389, “Synthesis and biological evaluation of novel hydroquinone dimethyl ethers as potential anticancer and antimicrobial agents” (2013):
In brackets after ≈: the same amount, converted by molar mass.

Assays:
Assay type in all cases: functional
Pseudomonas aeruginosa = assay: Antimicrobial activity against Pseudomonas aeruginosa ATCC 10145 after 48 hr by two-fold serial broth dilution method; conditions: ATCC 10145, 48 h
Staphylococcus aureus = assay: Antimicrobial activity against Staphylococcus aureus DSM 1104 after 48 hr by two-fold serial broth dilution method; conditions: DSM 1104, 48 h
Bacillus subtilis = assay: Antimicrobial activity against Bacillus subtilis ATCC 6633 after 48 hr by two-fold serial broth dilution method; conditions: ATCC 6633, 48 h
Escherichia coli = assay: Antimicrobial activity against Escherichia coli ATCC 11775 after 48 hr by two-fold serial broth dilution method; conditions: ATCC 11775, 48 h
Candida albicans = assay: Antimicrobial activity against Candida albicans DSM 70014 after 48 hr by two-fold serial broth dilution method; conditions: DSM 70014, 48 h

Row | MIC (Pseudomonas aeruginosa) [µg/mL] | MIC (Staphylococcus aureus) [µg/mL] | MIC (Bacillus subtilis) [µg/mL] | MIC (Escherichia coli) [µg/mL] | MIC (Candida albicans) [µg/mL] | SMILES | MBC (Pseudomonas aeruginosa) [µg/mL] | MBC (Staphylococcus aureus) [µg/mL] | MBC (Bacillus subtilis) [µg/mL] | MBC (Escherichia coli) [µg/mL] | MFC (Candida albicans) [µg/mL]
1 | 50 (≈ 141 µM) | 100 (≈ 281 µM) | 50 (≈ 141 µM) | 50 (≈ 141 µM) | 50 (≈ 141 µM) | COc1ccc(OC)c(/C=C/C(=O)N/N=C/c2ccc([N+](=O)[O-])cc2)c1 | 50 (≈ 141 µM) | 100 (≈ 281 µM) | 50 (≈ 141 µM) | 50 (≈ 141 µM) | 50 (≈ 141 µM)
2 | 100 (≈ 284 µM) | 25 (≈ 70.9 µM) | 50 (≈ 142 µM) | 100 (≈ 284 µM) | 50 (≈ 142 µM) | COc1ccc(OC)c(/C=C/C2=NN(C(C)=O)C(c3ccccc3)O2)c1 (stereo not given) | 100 (≈ 284 µM) | 50 (≈ 142 µM) | 50 (≈ 142 µM) | 100 (≈ 284 µM) | 50 (≈ 142 µM)
3 | 25 (≈ 64.6 µM) | 100 (≈ 259 µM) | 50 (≈ 129 µM) | 25 (≈ 64.6 µM) | 50 (≈ 129 µM) | COc1ccc(OC)c(/C=C/C2=NN(C(C)=O)C(c3ccc(Cl)cc3)O2)c1 (stereo not given) | 50 (≈ 129 µM) | 100 (≈ 259 µM) | 50 (≈ 129 µM) | 50 (≈ 129 µM) | 100 (≈ 259 µM)
4 | 50 (≈ 126 µM) | 100 (≈ 252 µM) | 50 (≈ 126 µM) | 50 (≈ 126 µM) | 100 (≈ 252 µM) | COc1ccc(OC)c(/C=C/C2=NN(C(C)=O)C(c3ccc([N+](=O)[O-])cc3)O2)c1 (stereo not given) | 100 (≈ 252 µM) | 100 (≈ 252 µM) | 100 (≈ 252 µM) | 100 (≈ 252 µM) | 100 (≈ 252 µM)
5 | 100 (≈ 295 µM) | 50 (≈ 147 µM) | 50 (≈ 147 µM) | 25 (≈ 73.7 µM) | 100 (≈ 295 µM) | COc1ccc(OC)c(/C=C/c2nnc(S)n2-c2ccccc2)c1 | 100 (≈ 295 µM) | 50 (≈ 147 µM) | 50 (≈ 147 µM) | 50 (≈ 147 µM) | 100 (≈ 295 µM)
